Consider 16 compounds from ChEMBL document CHEMBL1147145, “Scaffold targeting drug-resistant colon cancers” (J Med Chem, 2007).

Non-standard residues stand in square brackets, D forms with d. Residues, ends and D or L forms follow the SMILES beside them. NMeF = CN[C@@H](Cc1ccccc1)C(=O)O; NMeL = CN[C@@H](CC(C)C)C(=O)O; dNMeL = CN[C@H](CC(C)C)C(=O)O; Sar = CNCC(=O)O

One assay concerns HCT-116. Nature of the assay: Growth inhibition in HCT116 cells assessed as inhibition of [3H]thymidine incorporation at 1 uM relative to control. Format: functional. As to conditions: Homo sapiens, read-out: TGI.
Consider `CC(C)C[C@@H]1NC(=O)[C@H](Cc2ccccc2)NC(=O)[C@@H](CC(C)C)NC(=O)[C@H](C(C)C)NC(=O)[C@H](CC(C)C)NC1=O` (cyclo(FLLV[dL])), for which the inhibition of growth at 1 µM is 18%.

With `CC(C)C[C@@H]1NC(=O)[C@H](Cc2ccccc2)NC(=O)[C@@H](CC(C)C)N(C)C(=O)[C@H](C(C)C)NC(=O)[C@H](CC(C)C)NC1=O` (cyclo(FLLV[dNMeL])), the inhibition of growth at 1 µM worked out at 25%.

As for `CC(C)C[C@@H]1NC(=O)[C@H](Cc2ccccc2)NC(=O)[C@H](CC(C)C)NC(=O)[C@@H](Cc2ccccc2)NC(=O)[C@H](CC(C)C)NC1=O` (cyclo(FLL[dF]L)), the inhibition of growth at 1 µM was 11%.

Take `CC(C)C[C@@H]1NC(=O)[C@H](Cc2ccccc2)NC(=O)[C@H](CC(C)C)NC(=O)[C@@H](CO)NC(=O)[C@H](CC(C)C)NC1=O` (cyclo(FLL[dS]L)): the inhibition of growth at 1 µM turned out to be 0%.

With `CC(C)C[C@@H]1NC(=O)[C@H](Cc2ccccc2)NC(=O)[C@@H](CC(C)C)NC(=O)[C@@H](C(C)C)NC(=O)[C@H](CC(C)C)NC1=O` (cyclo(FLL[dV][dL])), the inhibition of growth at 1 µM was 41%.

In the case of `CC(C)C[C@@H]1NC(=O)[C@H](Cc2ccccc2)NC(=O)[C@H](CC(C)C)NC(=O)[C@H](C(C)C)NC(=O)[C@@H](CC(C)C)NC1=O` (cyclo(FL[dL]VL)), the inhibition of growth at 1 µM is 0%.

On to `CC(C)C[C@@H]1NC(=O)[C@H](C(C)C)NC(=O)[C@H](CC(C)C)NC(=O)[C@H](CC(C)C)N(C)C(=O)[C@H](Cc2ccccc2)NC1=O` (cyclo(F[NMeL]LVL)), for which the inhibition of growth at 1 µM was 59%.

Consider `CC(C)C[C@@H]1NC(=O)[C@@H](C(C)C)NC(=O)[C@H](CC(C)C)NC(=O)[C@H](CC(C)C)N(C)C(=O)[C@H](Cc2ccccc2)NC1=O` (cyclo(F[NMeL]L[dV]L)), for which the inhibition of growth at 1 µM is 38%.

Consider `CC(C)C[C@@H]1NC(=O)CN(C)C(=O)[C@H](Cc2ccccc2)NC(=O)[C@H](C(C)C)NC(=O)[C@@H](C(C)C)NC1=O` (cyclo(F[Sar]L[dV]V)), for which the inhibition of growth at 1 µM was 20%.

In the case of `CC(C)C[C@@H]1NC(=O)[C@@H](CC(C)C)NC(=O)[C@H](Cc2ccccc2)NC(=O)[C@H](CC(C)C)NC(=O)[C@@H](C(C)C)NC1=O` (cyclo(F[dL]L[dV]L)), the inhibition of growth at 1 µM was 16%.

As for `CC(C)C[C@@H]1NC(=O)[C@H](C(C)C)NC(=O)[C@@H](CC(C)C)NC(=O)[C@@H](CC(C)C)NC(=O)[C@H](Cc2ccccc2)NC1=O` (cyclo(F[dL][dL]VL)), the inhibition of growth at 1 µM was found to be 28%.

Regarding `CC(C)C[C@@H]1NC(=O)[C@H](CC(C)C)NC(=O)[C@@H](Cc2ccccc2)NC(=O)[C@H](CC(C)C)NC(=O)[C@H](C(C)C)NC1=O` (cyclo(LLVL[dF])), the inhibition of growth at 1 µM stood at 30%.

Take `CC(C)C[C@@H]1NC(=O)[C@H](CC(C)C)NC(=O)[C@@H](Cc2c[nH]c3ccccc23)NC(=O)[C@H](CC(C)C)NC(=O)[C@H](C(C)C)NC1=O` (cyclo(LLVL[dW])): the inhibition of growth at 1 µM was 2%.

With `CC(C)C[C@@H]1NC(=O)[C@H](Cc2ccc(O)cc2)NC(=O)[C@H](CC(C)C)N(C)C(=O)[C@H](C(C)C)NC(=O)[C@H](CC(C)C)NC1=O` (cyclo(LLV[NMeL]Y)), the inhibition of growth at 1 µM came out at 20%.

Turning to `CC(C)C[C@@H]1NC(=O)[C@H](CC(C)C)NC(=O)[C@H](Cc2ccccc2)N(C)C(=O)[C@H](CC(C)C)NC(=O)[C@H](C(C)C)NC1=O` (cyclo([NMeF]LLVL)), the inhibition of growth at 1 µM stood at 2%.

Regarding `CC(C)C[C@@H]1NC(=O)[C@H](C(C)C)NC(=O)[C@H](CC(C)C)NC(=O)[C@@H](CC(C)C)N(C)C(=O)[C@H](Cc2ccccc2)NC1=O` (cyclo([dNMeL]LVLF)), the inhibition of growth at 1 µM was found to be 45%.

The test system of another assay is HCT-15. Nature of the assay: Growth inhibition in HCT15 cells assessed as inhibition of [3H]thymidine incorporation at 1 uM relative to control. Format: functional. The following applies: Homo sapiens, read-out: TGI. A general note: Dividing cells build labelled thymidine or BrdU into new DNA.
For the compound `CC(C)C[C@@H]1NC(=O)[C@H](Cc2ccccc2)NC(=O)[C@@H](CC(C)C)NC(=O)[C@H](C(C)C)NC(=O)[C@H](CC(C)C)NC1=O` (cyclo(FLLV[dL])), the inhibition of growth at 1 µM was found to be 10%.

`CC(C)C[C@@H]1NC(=O)[C@H](Cc2ccccc2)NC(=O)[C@@H](CC(C)C)N(C)C(=O)[C@H](C(C)C)NC(=O)[C@H](CC(C)C)NC1=O` (cyclo(FLLV[dNMeL])): the inhibition of growth at 1 µM stood at 33%.

For the compound `CC(C)C[C@@H]1NC(=O)[C@H](Cc2ccccc2)NC(=O)[C@H](CC(C)C)NC(=O)[C@@H](Cc2ccccc2)NC(=O)[C@H](CC(C)C)NC1=O` (cyclo(FLL[dF]L)), the inhibition of growth at 1 µM worked out at 11%.

`CC(C)C[C@@H]1NC(=O)[C@H](Cc2ccccc2)NC(=O)[C@H](CC(C)C)NC(=O)[C@@H](CO)NC(=O)[C@H](CC(C)C)NC1=O` (cyclo(FLL[dS]L)): the inhibition of growth at 1 µM amounted to 11%.

As for `CC(C)C[C@@H]1NC(=O)[C@H](Cc2ccccc2)NC(=O)[C@@H](CC(C)C)NC(=O)[C@@H](C(C)C)NC(=O)[C@H](CC(C)C)NC1=O` (cyclo(FLL[dV][dL])), the inhibition of growth at 1 µM came out at 21%.

On to `CC(C)C[C@@H]1NC(=O)[C@H](Cc2ccccc2)NC(=O)[C@H](CC(C)C)NC(=O)[C@H](C(C)C)NC(=O)[C@@H](CC(C)C)NC1=O` (cyclo(FL[dL]VL)), for which the inhibition of growth at 1 µM amounted to 15%.

As for `CC(C)C[C@@H]1NC(=O)[C@H](C(C)C)NC(=O)[C@H](CC(C)C)NC(=O)[C@H](CC(C)C)N(C)C(=O)[C@H](Cc2ccccc2)NC1=O` (cyclo(F[NMeL]LVL)), the inhibition of growth at 1 µM was 35%.

On to `CC(C)C[C@@H]1NC(=O)[C@@H](C(C)C)NC(=O)[C@H](CC(C)C)NC(=O)[C@H](CC(C)C)N(C)C(=O)[C@H](Cc2ccccc2)NC1=O` (cyclo(F[NMeL]L[dV]L)), for which the inhibition of growth at 1 µM was found to be 19%.

For `CC(C)C[C@@H]1NC(=O)CN(C)C(=O)[C@H](Cc2ccccc2)NC(=O)[C@H](C(C)C)NC(=O)[C@@H](C(C)C)NC1=O` (cyclo(F[Sar]L[dV]V)), the inhibition of growth at 1 µM stood at 18%.

For `CC(C)C[C@@H]1NC(=O)[C@@H](CC(C)C)NC(=O)[C@H](Cc2ccccc2)NC(=O)[C@H](CC(C)C)NC(=O)[C@@H](C(C)C)NC1=O` (cyclo(F[dL]L[dV]L)), the inhibition of growth at 1 µM turned out to be 20%.

Consider `CC(C)C[C@@H]1NC(=O)[C@H](C(C)C)NC(=O)[C@@H](CC(C)C)NC(=O)[C@@H](CC(C)C)NC(=O)[C@H](Cc2ccccc2)NC1=O` (cyclo(F[dL][dL]VL)), for which the inhibition of growth at 1 µM worked out at 40%.

As for `CC(C)C[C@@H]1NC(=O)[C@H](CC(C)C)NC(=O)[C@@H](Cc2ccccc2)NC(=O)[C@H](CC(C)C)NC(=O)[C@H](C(C)C)NC1=O` (cyclo(LLVL[dF])), the inhibition of growth at 1 µM is 26%.

In the case of `CC(C)C[C@@H]1NC(=O)[C@H](CC(C)C)NC(=O)[C@@H](Cc2c[nH]c3ccccc23)NC(=O)[C@H](CC(C)C)NC(=O)[C@H](C(C)C)NC1=O` (cyclo(LLVL[dW])), the inhibition of growth at 1 µM turned out to be 9%.

As to `CC(C)C[C@@H]1NC(=O)[C@H](Cc2ccc(O)cc2)NC(=O)[C@H](CC(C)C)N(C)C(=O)[C@H](C(C)C)NC(=O)[C@H](CC(C)C)NC1=O` (cyclo(LLV[NMeL]Y)), the inhibition of growth at 1 µM was 3%.

Regarding `CC(C)C[C@@H]1NC(=O)[C@H](CC(C)C)NC(=O)[C@H](Cc2ccccc2)N(C)C(=O)[C@H](CC(C)C)NC(=O)[C@H](C(C)C)NC1=O` (cyclo([NMeF]LLVL)), the inhibition of growth at 1 µM was 18%.

Regarding `CC(C)C[C@@H]1NC(=O)[C@H](C(C)C)NC(=O)[C@H](CC(C)C)NC(=O)[C@@H](CC(C)C)N(C)C(=O)[C@H](Cc2ccccc2)NC1=O` (cyclo([dNMeL]LVLF)), the inhibition of growth at 1 µM stood at 10%.
